Measured values reported in the supplement of paper PMC10307832.

Columns and labels:
Experiment in all cases: relative viability (nuclei count vs DMSO), 5 days (fraction); higher = more cells survive
Ispinesib + Luminespib = compound: Cc1ccc(C(=O)N(CCCN)[C@@H](c2nc3cc(Cl)ccc3c(=O)n2Cc2ccccc2)C(C)C)cc1 [Ispinesib] + CCNC(=O)c1noc(-c2cc(C(C)C)c(O)cc2O)c1-c1ccc(CN2CCOCC2)cc1 [Luminespib] (partner 0.01 µM)
In short: (§1)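 The day after seeding in 1536-well plates, lung cancer cell lines were treated by pin tool with a single drug, or with a fixed anchor-drug dose together with five library-drug doses (not always all listed) in √10 steps. After 5 days, a combined fix-and-stain solution (final 0.05% Triton X-100, 1% formaldehyde, 1 ug/ml Hoechst) was added. Nuclei counted on 4× images gave relative viability as treated counts over vehicle counts, reported as the median of duplicate plates.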

Linsitinib + Olaparib = compound: C[C@]1(O)C[C@@H](c2nc(-c3ccc4ccc(-c5ccccc5)nc4c3)c3c(N)nccn32)C1 [Linsitinib] + O=C(c1cc(Cc2n[nH]c(=O)c3ccccc23)ccc1F)N1CCN(C(=O)C2CC2)CC1 [Olaparib] (partner 8 µM)
In short: as §1

Linsitinib + Tozasertib = compound: C[C@]1(O)C[C@@H](c2nc(-c3ccc4ccc(-c5ccccc5)nc4c3)c3c(N)nccn32)C1 [Linsitinib] + Cc1cc(Nc2cc(N3CCN(C)CC3)nc(Sc3ccc(NC(=O)C4CC4)cc3)n2)n[nH]1 [Tozasertib] (partner 0.1 µM)
In short: as §1

Ispinesib + Dasatinib = compound: Cc1ccc(C(=O)N(CCCN)[C@@H](c2nc3cc(Cl)ccc3c(=O)n2Cc2ccccc2)C(C)C)cc1 [Ispinesib] + Cc1nc(Nc2ncc(C(=O)Nc3c(C)cccc3Cl)s2)cc(N2CCN(CCO)CC2)n1 [Dasatinib] (partner 0.075 µM)
In short: as §1

Cell Line | relative viability (Ispinesib + Luminespib; first compound 0.001 µM) | relative viability (Ispinesib + Luminespib; first compound 0.003162 µM) | relative viability (Ispinesib + Luminespib; first compound 0.01 µM) | relative viability (Ispinesib + Luminespib; first compound 0.03162 µM) | relative viability (Ispinesib + Luminespib; first compound 0.1 µM) | relative viability (Linsitinib + Olaparib; first compound 0.01 µM) | relative viability (Linsitinib + Olaparib; first compound 0.03162 µM) | relative viability (Linsitinib + Olaparib; first compound 0.1 µM) | relative viability (Linsitinib + Olaparib; first compound 0.3162 µM) | relative viability (Linsitinib + Olaparib; first compound 1 µM) | relative viability (Linsitinib + Tozasertib; first compound 0.01 µM) | relative viability (Linsitinib + Tozasertib; first compound 0.03162 µM) | relative viability (Linsitinib + Tozasertib; first compound 0.1 µM) | relative viability (Linsitinib + Tozasertib; first compound 0.3162 µM) | relative viability (Linsitinib + Tozasertib; first compound 1 µM) | relative viability (Ispinesib + Dasatinib; first compound 0.001 µM) | relative viability (Ispinesib + Dasatinib; first compound 0.003162 µM) | relative viability (Ispinesib + Dasatinib; first compound 0.01 µM) | relative viability (Ispinesib + Dasatinib; first compound 0.03162 µM) | relative viability (Ispinesib + Dasatinib; first compound 0.1 µM)
H3255 | 0.898 | 1.1 | 0.859 | 0.557 | 0.29 | 0.6 | 0.604 | 0.564 | 0.456 | 0.5 | 0.626 | 0.65 | 0.612 | 0.497 | 0.559 | 0.316 | 0.419 | 0.357 | 0.307 | 0.244
NCI-H23 | 0.205 | 0.202 | 0.199 | 0.195 | 0.197 | 0.33 | 0.317 | 0.29 | 0.218 | 0.182 | 0.365 | 0.485 | 0.372 | 0.437 | 0.331 | 0.857 | 1.02 | 0.885 | 0.653 | 0.188
NCI-H1944 | 0.75 | 0.781 | 0.968 | 0.475 | 0.617 | 0.437 | 0.521 | 0.4 | 0.333 | 0.382 | 0.247 | 0.256 | 0.235 | 0.209 | 0.221 | 0.214 | 0.266 | 0.211 | 0.184 | 0.104
